Assay results as given in ChEMBL document CHEMBL4831481, “Semisynthesis, Antiplasmodial Activity, and Mechanism of Action Studies of Isocoumarin Derivatives” (J Nat Prod, 2021).
pIC50: −log10 of the molar value. Active and inactive are the calls of the source. The calls are words filed in the database; no cut-off is given here.

Key:
Plasmodium falciparum [1] = experiment: Antiplasmodial activity against Plasmodium falciparum HB3 infected in human erythrocytes assessed as reduction in parasite growth incubated for 48 hrs by PicoGreen DNA fluorescent dye; type: functional, organism-based; conditions: HB3, 48 h
Vero = experiment: Cytotoxicity against African green monkey Vero cells assessed as reduction in cell viability by MTT assay; type: functional; conditions: Chlorocebus sabaeus
[2] = Selectivity index, ratio of CC50 for African green monkey Vero cells to IC50 for Plasmodium falciparum HB3 infected in human erythrocytes assessed as reduction in parasite growth; type: toxicity, cell-based; conditions: read-out: Ratio CC50/IC50
Trypanosoma cruzi [3] = experiment: Antitrypanosomal activity against Trypanosoma cruzi amastigotes infected in African green monkey Vero cells incubated for 5 days by chlorophenol red-beta-D-galactoside based colorimetric analysis; type: functional, organism-based; conditions: 120 h
Hemozoin = experiment: Inhibition of beta-hematin formation in Plasmodium falciparum assessed as decrease in beta-hematin; set-up: scale not given: the % may be the effect or the level left
[4] = target: T1, DNA gyrase (Escherichia coli) (UniProt P0AES6+P0AES4); experiment: Inhibition of Escherichia coli DNA gyrase at 50 uM by fluorescence based assay relative to control; type: protein-complex assay
[5] = target: T1, DNA gyrase (Escherichia coli); experiment: Inhibition of Escherichia coli DNA gyrase at 100 uM by fluorescence based assay relative to control; type: protein-complex assay
Leishmania donovani = experiment: Antileishmanial activity against Leishmania donovani axenic amastigotes at 10 ug/mL assessed as growth inhibition relative to control; type: functional; conditions: read-out: GI
Trypanosoma cruzi [6] = experiment: Antitrypanosomal activity against Trypanosoma cruzi amastigotes infected in African green monkey Vero cells incubated for 5 days at 10 ug/mL by chlorophenol red-beta-D-galactoside based colorimetric analysis relative to control; type: functional; conditions: 120 h, time 5 day, read-out: GI
MCF7 = experiment: Growth inhibition of human MCF7 cells at 10 ug/mL relative to control; type: functional; conditions: read-out: GI
[7] = system: Plasmodium falciparum HB3; experiment: Disruption of cell membrane integrity in schizont stage Plasmodium falciparum HB3 infected red blood cells incubated for 3 hrs at 10 uM and measured by propidium iodide incorporation assay relative to control; type: cell membranes
[8] = Disruption of cell membrane integrity in red blood cells incubated for 3 hrs at 10 uM and measured by propidium iodide incorporation assay relative to control; type: ADME, cell membranes
Erythrocyte = experiment: Hemolytic activity against red blood cells assessed as hemolysis at 10 uM incubated for 24 hrs by spectrophotometric analysis relative to control; type: ADME, cell-based
Plasmodium falciparum [9] = experiment: […] activity in schizont stage Plasmodium falciparum HB3 assessed as reduction in mitochondrial membrane potential at 10 uM incubated for 20 mins and measured after 3 hrs by DiOC6-staining based fluorometry analysis relative to control; type: functional, organism-based
Plasmodium falciparum [10] = experiment: Induction of reactive oxygen species generation in schizont stage Plasmodium falciparum HB3 incubated for 3 hrs at 10 uM by CM-H2DCFDA dye based fluorescence assay relative to control; type: functional, organism-based
Plasmodium falciparum [11] = experiment: Induction of apoptosis in schizont stage Plasmodium falciparum HB3 infected red blood cells assessed as caspase activity measured by FLICA reagent based fluorescence assay; type: functional, organism-based
[12] = target: T1, DNA gyrase (Escherichia coli); experiment: Inhibition of Escherichia coli DNA gyrase at 10 uM by fluorescence based assay relative to control; type: protein-complex assay

SMILES	pIC50 (Plasmodium falciparum [1])	CC50 (Vero) [µM]	selectivity ratio [2]	pIC50 (Trypanosoma cruzi [3])	further results
CCC[C@H]1C[C@H]2OC(=O)c3c(cc(OC)c(OC)c3OC(C)=O)[C@H]2O1	6.11	124	161		
CCC[C@H]1C[C@H]2OC(=O)c3c(cc(O)c(O)c3OCc3cc(C(F)(F)F)cc(C(F)(F)F)c3)[C@H]2O1				4.92	
COC(=O)CC[C@H]1C[C@H]2OC(=O)c3c(cc(OC)c(OC)c3O)[C@H]2O1	5.59	106	41		
CCN(CC)CCCC(C)Nc1ccnc2cc(Cl)ccc12 (configuration not stated)					Activity (Hemozoin): 68.2%; inhibition [4]: inactive
CC/C(=C(\c1ccccc1)c1ccc(OCCN(C)C)cc1)c1ccccc1					inhibition [5]: Active
CCC[C@H]1C[C@H]2OC(=O)c3c(cc(O)c(O)c3OCc3cccc(C(F)(F)F)c3)[C@H]2O1				4.87	
CCC[C@H]1C[C@H]2OC(=O)c3c(cc(O)c(O)c3OCc3ccc(C(F)(F)F)cc3)[C@H]2O1				4.91	
CCC[C@H]1C[C@H]2OC(=O)c3c(cc(OC)c(OC)c3O)[C@H]2O1 [MONOCERIN]	5.95	87.5	77		
COc1cc2c(c(O)c1OC)C(=O)O[C@@H]1C[C@H](C[C@H](C)O)O[C@H]21	4.93	262	22		
CCC[C@H](O)C[C@H]1OC(=O)c2c(cc(OC)c(OC)c2O)[C@H]1OC	6.42	258	675		inhibition of growth at 10 µg/mL (Leishmania donovani): 0%; inhibition of growth at 10 µg/mL (Trypanosoma cruzi [6]): 0%; inhibition of growth at 10 µg/mL (MCF7): 0%; Activity [7]: inactive; Activity [8]: Non-Toxic; Activity (Erythrocyte): Non-Toxic; Activity (Plasmodium falciparum [9]): Active; Activity (Plasmodium falciparum [10]): inactive; Activity (Plasmodium falciparum [11]): inactive; Activity (Hemozoin): 51.1%; inhibition [12]: 48%
